Reference: article doi:10.1101/2025.11.04.686469, “Discovery of Host-Directed Small Molecules with Broad Anti-Leishmanial Efficacy” (bioRxiv, 2025)

Test system: THP-1 macrophages
Experiment: Effect of compounds on host cell viability (MTT)
Assay type: cell-based
Conditions: read-out: 24h LC50; THP1 macrophages, 24-hour incubation, MTT assay (Supplemental Table 2)
Experimental: The cells were cultured at 37C, 5% CO2 in RPMI medium (ATCC) supplemented with 10% FBS, 1% Penicillin/Streptomycin and 0.05 mM of β-mercaptoethanol. Cells were used in experiments up to passage 10.
Effect of the compounds on THP-1 cell viability measured using thiazolyl blue tetrazolium bromide which measures cell metabolic activity (MTT). THP-1 cells were seeded in a 96 well plate (25,000 cells/well) overnight then differentiated with 150 nM phorbol 12-myristate 13-acetate (PMA) over 72 hours. Macrophages were then treated with compounds resuspended in RPMI media (1- 50 μM) for 24 hours. Media was replaced with thiazolyl blue tetrazolium bromide solubilized in RPMI media (0.5 mg/mL) and incubated at 37°C for 2 hours. The reduced formazan crystals were solubilized with isopropyl alcohol and the absorbance of the resulting solution was measured at 560 nm with a background subtraction at 670 nm. […] This process was repeated with a 72-hr incubation and extended concentration range (1 - 300 μM) for select compounds.

Compound | CC50 [µM]
FC(F)(F)c1ccc(-c2ccc(-c3cc(C(F)(F)F)nn3-c3ccc(N4CCC(NCc5ccccc5)C4)cc3)cc2)cc1 (centres unmarked) [Compound 16] | > 50
FC(F)(F)c1cc(-c2ccco2)n(-c2ccc(Br)cc2)n1 [Compound 267] | > 50
O=C(c1ccc(F)cc1)N1CCC(Nc2ccc(-n3nc(C(F)(F)F)cc3-c3ccc(-c4ccc(C(F)(F)F)cc4)cc3)cc2)C1 (centres unmarked) [Compound 59] | > 50
NCC(=O)Nc1ccc(-n2cc(C(F)(F)F)nc2-c2ccccc2C(F)(F)F)cc1 [Compound 297] | > 50
FC(F)(F)c1cc(C2CCCCC2)n(-c2ccc(OC3CCN(Cc4ccccc4)C3)cc2)n1 (centres unmarked) [Compound 378] | > 50
CC(=O)NCCCOc1ccc(CN2CCC(Oc3ccc(-n4nc(C(F)(F)F)cc4C4CCCCC4)cc3)CC2)cc1 [Compound 430] | 16.5
CC(=O)NCCN1CCC(Oc2ccc(-n3nc(C(F)(F)F)cc3C3CCCCC3)cc2)CC1 [Compound 417] | 24.4
CCc1cc(C(F)(F)F)nn1-c1ccc(NC2CCN(C(=O)OC(C)(C)C)C2)cc1 (centres unmarked) [Compound 317] | > 50
FC(F)(F)c1ccc(-c2nc(C(F)(F)F)cn2CC2CCNC2)cc1 (centres unmarked) [Compound 292] | > 50
FC(F)(F)c1ccc(-c2ccc(-c3cc(C(F)(F)F)nn3-c3ccc(N4CCC(NCc5cccc(Cl)c5Cl)C4)cc3)cc2)cc1 (centres unmarked) [Compound 13] | > 50
Fc1ccccc1CNC1CCN(c2ccc(-n3nc(C(F)(F)F)cc3-c3ccc(-c4ccc(C(F)(F)F)cc4)cc3)cc2)C1 (centres unmarked) [Compound 21] | > 50
NCC(=O)Nc1ccc(-n2cc(C(F)(F)F)nc2C2CCCCC2)cc1 [Compound 327] | > 50
FC(F)(F)c1cc(C2CC2)n(-c2ccc(Br)cc2)n1 [Compound 266] | > 50
Fc1cccc(CN2CCC(Nc3ccc(-n4nc(C(F)(F)F)cc4C4CCCCC4)cc3)CC2)c1 [Compound 322] | > 50
O=C(CNCc1cccc(F)c1)Nc1ccc(-n2nc(C(F)(F)F)cc2C2CCCCC2)cc1 [Compound 352] | 29.3
CCCCNc1ccc(-n2nc(C(F)(F)F)cc2-c2ccc(-c3ccc(C(F)(F)F)cc3)cc2)cc1 [Compound 57] | > 50
CC(C)(C)OC(=O)N1CC(Nc2ccc(-n3nc(C(F)(F)F)cc3-c3ccc(-c4ccc(C(F)(F)F)cc4)cc3)cc2)C1 [Compound 56] | > 50
NCCNC1CCN(c2ccc(-n3nc(C(F)(F)F)cc3C3CCCCC3)cc2)CC1 [Compound 418] | 12.6
FC(F)(F)c1cc(-c2ccc(-c3ccc(S(F)(F)(F)(F)F)cc3)cc2)n(-c2ccc(N3CCNCC3)cc2)n1 [Compound 46] | 10
CC(C)(C)OC(=O)N1CCC(Nc2ccc(-n3nc(C(F)(F)F)cc3C(F)(F)F)cc2)C1 (centres unmarked) [Compound 283] | > 50
FC(F)(F)c1ccc(-c2cc(C(F)(F)F)nn2CCNC2CCN(Cc3ccccc3)C2)cc1 (centres unmarked) [Compound 294] | 28.2
CC(C)(C)OC(=O)N1CCN(c2ccc(-n3nc(C(F)(F)F)cc3-c3ccc(Br)cc3)cc2)CC1 [Compound 41] | > 50
FC(F)(F)c1cc(C2CCCCC2)n(-c2ccc(N3CCC(OCc4ccccc4)C3)cc2)n1 (centres unmarked) [Compound 412] | > 50
CCCN(CCC)CCc1c[nH]c2ccccc12 [Compound 411] | > 50

Compound | CC50 [µM]
Fc1cccc(CN2CCC(Oc3ccc(-n4nc(C(F)(F)F)cc4C4CCCCC4)cc3)CC2)c1 [Compound 372] | > 50
Cc1cc(C(F)(F)F)n(-c2ccc(NC3CCNC3)cc2)n1 (centres unmarked) [Compound 284] | > 50
FC(F)c1cc(-c2ccc(-c3ccc(C(F)(F)F)cc3)cc2)n(-c2ccc(Br)cc2)n1 [Compound 279] | > 50
FC(F)(F)c1ccc(CNC2CCN(c3ccc(-n4nc(C(F)(F)F)cc4-c4ccc(-c5ccc(C(F)(F)F)cc5)cc4)cc3)C2)cc1 (centres unmarked) [Compound 24] | > 50
CC(C)(C)OC(=O)N1CCC(Nc2ccc(-n3nc(C(F)(F)F)cc3-c3ccco3)cc2)C1 (centres unmarked) [Compound 269] | > 50
NCC(=O)Nc1ccc(-n2ccnc2-c2ccc(C(F)(F)F)cc2)cc1 [Compound 406] | > 50
CC(C)(C)c1nc(C(F)(F)F)cn1-c1ccc(Br)cc1 [Compound 329] | > 50
CC(C)c1cc(C(F)(F)F)nn1-c1ccc(Br)cc1 [Compound 277] | > 50
FC(F)(F)c1ccc(-c2ccc(-c3cc(C(F)(F)F)nn3-c3ccc(Br)cc3)cc2)cc1 [Compound 2] | > 50
CC(C)c1cc(C(F)(F)F)nn1-c1ccc(NC2CCN(C(=O)OC(C)(C)C)C2)cc1 (centres unmarked) [Compound 286] | > 50
Nc1ccc(-n2nc(C(F)(F)F)cc2C2CCCCC2)cc1 [Compound 338] | > 50
Nc1ccc(-n2cc(C(F)(F)F)nc2-c2ccc(Cl)cc2)cc1 [Compound 30] | > 50
NCC(=O)Nc1ccc(-n2cc(C(F)(F)F)nc2-c2ccc(OC(F)(F)F)cc2)cc1 [Compound 299] | 31.6
Fc1cccc(CN2CCC(Oc3ccc(-n4nc(C(F)(F)F)cc4C4CCCCC4)cc3)C2)c1 (centres unmarked) [Compound 376] | > 50
Cc1cc(C(F)(F)F)nn1-c1ccc(NC2CCNC2)cc1 (centres unmarked) [Compound 313] | > 50
Nc1ccc(-n2nc(C(F)(F)F)cc2-c2ccc(Br)cc2)cc1 [Compound 40] | > 50
CCCCCCNc1ccc(-n2nc(C(F)(F)F)cc2-c2ccc(-c3ccc(C(F)(F)F)cc3)cc2)cc1 [Compound 60] | > 50
CCc1cc(-c2ccc(-c3ccc(C(F)(F)F)cc3)cc2)n(-c2ccc(Br)cc2)n1 [Compound 280] | > 50
O=[N+]([O-])c1ccc(-n2nc(-c3ccc(Br)cc3)cc2C(F)(F)F)cc1 [Compound 38] | > 50
O=[N+]([O-])c1ccc(-n2cc(C(F)(F)F)nc2-c2ccc(Cl)cc2)cc1 [Compound 29] | > 50
CC(C)C#Cc1ccc(-c2cc(C(F)(F)F)nn2-c2ccc(N3CCC(NCc4ccc(O)cc4)C3)cc2)cc1 (centres unmarked) [Compound 101] | 0.5
CC(C)(C)OC(=O)N1CCC(Nc2ccc(-n3nc(C(F)(F)F)cc3C3CC3)cc2)C1 (centres unmarked) [Compound 268] | > 50
O=[N+]([O-])c1ccc(-n2nc(C(F)(F)F)cc2-c2ccc(-c3ccc(C(F)(F)F)cc3)cc2)cc1 [Compound 9] | > 50
Nc1ccc(-n2cc(C(F)(F)F)nc2-c2ccc(-c3ccccc3)cc2)cc1 [Compound 33] | 1.5

Compound | CC50 [µM]
FC(F)(F)c1c[nH]c(-c2ccc(-c3ccccc3)cc2)n1 [Compound 31] | > 50
CC(C)(C)OC(=O)N1CCN(c2ccc(-n3nc(C(F)(F)F)cc3-c3ccc(C#CC(F)(F)F)cc3)cc2)CC1 [Compound 47] | > 50
FC(F)(F)c1ccc(-c2ccc(-c3cc(C(F)(F)F)nn3-c3ccc(N4CCC(NCc5cccs5)C4)cc3)cc2)cc1 (centres unmarked) [Compound 20] | > 50
COc1ccc(CNC2CCN(c3ccc(-n4nc(C(F)(F)F)cc4-c4ccc(-c5ccc(C(F)(F)F)cc5)cc4)cc3)C2)cc1 (centres unmarked) [Compound 14] | 50
O=[N+]([O-])c1ccc(-n2nc(C(F)(F)F)cc2-c2ccc(Br)cc2)cc1 [Compound 37] | > 50
O=C(CO)Nc1ccc(-n2cc(C(F)(F)F)nc2-c2ccc(C(F)(F)F)cc2)cc1 [Compound 404] | > 50
CCc1cc(C(F)(F)F)nn1-c1ccc(Br)cc1 [Compound 316] | > 50
N#Cc1ccc(CNC2CCN(c3ccc(-n4nc(C(F)(F)F)cc4-c4ccc(-c5ccc(C(F)(F)F)cc5)cc4)cc3)C2)cc1 (centres unmarked) [Compound 19] | > 50
Cc1cc(C(F)(F)F)nn1-c1ccc(Br)cc1 [Compound 275] | > 50
FC(F)(F)c1cc(C2CCCCC2)n(-c2ccc(N3CCC(OCc4ccccc4)CC3)cc2)n1 [Compound 414] | > 50
NC(=O)CNc1ccc(-n2cc(C(F)(F)F)nc2-c2ccc(C(F)(F)F)cc2)cc1 [Compound 405] | > 50
FC(F)(F)c1ccc(-c2ccc(-c3cc(C(F)(F)F)nn3-c3ccc(NC4CCN(Cc5cccc(Cl)c5Cl)C4)cc3)cc2)cc1 (centres unmarked) [Compound 52] | > 50
COc1ccc(-n2nc(C(F)(F)F)cc2-c2ccc(-c3ccc(C(F)(F)F)cc3)cc2)cc1 [Compound 26] | 5.8
N#Cc1ccc(CN2CCC(Nc3ccc(-n4nc(C(F)(F)F)cc4C4CCCCC4)cc3)C2)cc1 (centres unmarked) [Compound 358] | 13.2
O=C(OCc1ccccc1)N1CCC(Nc2ccc(-n3nc(C(F)(F)F)cc3-c3ccc(-c4ccc(C(F)(F)F)cc4)cc3)cc2)C1 (centres unmarked) [Compound 6] | > 50
CC(C)(C)OC(=O)N1CCC(Nc2ccc(-n3nc(C(F)(F)F)cc3-c3ccccc3C(F)(F)F)cc2)C1 (centres unmarked) [Compound 259] | 23.6
CC(C)(C)OC(=O)N1CCC(Nc2ccc(-n3nc(C(F)(F)F)cc3-c3ccc(-c4ccc(C(F)(F)F)cc4)cc3)cc2)C1 (centres unmarked) [Compound 15] | > 50
CC(C)(C)OC(=O)NCC(=O)Nc1ccc(-n2nc(C(F)(F)F)cc2C2CCCCC2)cc1 [Compound 340] | > 50
O=[N+]([O-])c1ccc(-n2nc(C3CCCCC3)cc2C(F)(F)F)cc1 [Compound 335] | > 50
FC(F)(F)c1ccc(-c2ccc(-c3cc(C(F)(F)F)nn3-c3ccc(N4CCC(NCc5ccc6ccccc6c5)C4)cc3)cc2)cc1 (centres unmarked) [Compound 17] | > 50
CC(C)(C)OC(=O)N1CCC(Oc2ccc(-n3nc(C(F)(F)F)cc3-c3ccc(-c4ccc(C(F)(F)F)cc4)cc3)cc2)CC1 [Compound 28] | > 50
NCC(=O)NCCn1cc(C(F)(F)F)nc1-c1ccc(C(F)(F)F)cc1 [Compound 295] | > 50
N#Cc1ccc(COC2CCN(c3ccc(-n4nc(C(F)(F)F)cc4C4CCCCC4)cc3)C2)cc1 (centres unmarked) [Compound 413] | > 50
